This is an account of results in patent publication US20240158359A1, “HYDROLYSIS-RESISTANT ESTERS FOR DRUG AND IMAGING AGENT DELIVERY” (The Board of Trustees of the University of lllinois, priority 2022, published 2024).

Data set [1] relates to A549 cells. Description: MTT assay using MTX-Me2 and MTX-(PhiPr)2. The data set is classed as cell-based. Conditions: highest concentration (10 μM), 24 hours. The procedure: Next, we modified the two carboxylates in methotrexate (a potent anticancer and immunosuppressive drug) to afford the methyl (MTX-Me2) or Ph^iPr (MTX-(Ph^iPr)2) ester variants (FIG. 2b). A549 cells were cultured and treated with MTX-Me2 or MTX-(Ph^iPr)2 at various concentrations for 24 hours before they were subjected to MTT analyses. […] Statistical analysis for FIG. 3b, FIG. 3c and FIG. 3d was performed using a two-tailed t-test (α=0.05, **** P<0.001)
48-well plates were seeded with 30,000 A549 cells per well (500 μL of 60,000 cells/mL) and incubated at 37° C. with 5% CO2 for 24 hours. Media was removed and fresh serum-free RPMI 1640 containing […] of MTX-Me2 or MTX-(PriPr)2 were added (0.1% DMSO final v/v). The media was removed after 24 hours incubation and replaced with 500 μL of a 20:1 mixture of serum-free RPMI 1640 and (3-(4,5-dimethylthiazol2-yl)-2,5-diphenyl-tetrazolium bromide (MTT, 5 mg/mL stock in PBS). The cells were incubated for 2 hours under the same condition and then the medium was removed and replaced with DMSO (500 μL/well). The absorbance of each well was recorded at 555 nm on a microplate reader. Viability was calculated by the absorbance relative to the vehicle control.
Background: Formazan colour is commonly taken as a measure of viable cells.

Data set [2] can be described thus: Hydrolytic stability of BL660 esters in PBS, luciferase BL readout. The data set is classed as physicochemical. The note with it: for rate of hydrolysis: 10 μM, PBS pH 7.4, 37° C., 1, 6 and 12 hours. As to the method:
We began our analysis of stability by incubating BL660 esters of Compound (1), Compound (2), and Compound (3) at 37° C. in PBS (phosphate-buffered saline) (pH 7.4). After 1, 6, and 12 hours, luciferase was added (10mU, 37° C., pH 7.4) to initiate BL production. The rate of hydrolysis, reported as total luminescence counts per hour, indicates hydrolysis in descending order is: Compound (1) (13.9±1.4×10^3); Compound (2) (3.3±0.6×10^3), and Compound (3) (1.0±0.1×10^3) (FIG. 1b, wherein the esters are indicated on the horizontal axis) and FIG. 8 (wherein the respective timeline plots are identified beneath the horizontal axis as (1), (2), etc.). Luminescent counts were recorded using an IVIS In Vivo Imaging System. […] Without wishing to be bound by any theory, we speculate hydrolysis of (3) may involve an SN1 mechanism, thus favoring formation of a double benzylic carbocation.

Data set [3] relates to porcine liver esterase. The data set can be described thus: Esterase reactivity: treatment with porcine liver esterase, BL readout. The data set is classed as in vitro ADME. The note with it: 10 μM, porcine liver esterase 0.1 units/mL, 37° C., pH 7.4, 20, 40 and 60 minutes. From the text: The enzymatic rates, reported as total luminescence counts per minute, in descending order are: Compound (1) (31.0±6.8×10^2), (3) (9.5±1.2×10^2), and (2) (0.6±0.1×10^2) (FIG. 1c and FIG. 9). The greater stability imparted by the aromatic ring is not surprising since esterase reactivity can be readily attenuated with bulkier substituents.

For data set [4], the system named is 4T1-Luc cells. Description: Ester stability in live 4T1-Luc cells, BL imaging. The data set is classed as cell-based, murine. Conditions: 10 μM. As to the method:
First, we prepared BL660-Me, a methyl ester derivative of BL660 as shown in FIG. 2a for comparison to the benzyl ester (4) of FIG. 1a. Next, we cultured 4T1 murine breast cancer cells, stably expressing the luciferase enzyme (4T1-Luc). The cells were then treated with a DMSO (dimethyl sulfoxide) vehicle control, BL660-Me or Compound (4) (FIG. 3a and FIG. 10a, b, c respectively?). Imaging was performed using the IVIS In Vivo Imaging System.
4T1-Luc cell was cultured in phenol red-free RPMI 1640 (ATCC) with 10% fetal bovine serum (FBS, Sigma Aldrich), and 1% penicillin/streptomycin (Corning).
Evaluation of BL660-Me and 4 in 4T1-Luc Cells. 4T1-Luc cells (180K) were seeded into 24-well plates and incubated for 24 hours. The cells were ˜85% confluent. The media was removed and replaced with serum-free RPMI 1640. An initial background scan was recorded on an IVIS imaging system in open mode where no filters were applied. Cells were then treated with DMSO (2.5 μL, 0.5%), BL660-Me, or compound 4 in DMSO (10 μM final concentration). After 30 minutes incubation at 37° C., bioluminescence was collected. ROIs were drawn around each well. The total luminescence count for each well for a given condition was averaged. The signal intensity was quantified using the Living Image Analysis Software.

Usually viability stands for a read-out of living cells in per cent, often relative to untreated cells. High values mean better survival, low ones a greater loss of cells.

In data set [1], `COC(=O)CCC(NC(=O)c1ccc(N(C)Cc2cnc3nc(N)nc(N)c3n2)cc1)C(=O)OC` (stereo not drawn) [MTX-Me2, reference compound] displayed a viability of approximately 63%.
In the case of `CCN(CC)c1ccc(C=CC=CC2=NC(C(=O)OCc3ccccc3)CS2)cc1` (stereo not drawn) [Compound (1)], in data set [2], the rate of hydrolysis is 13.9±1.4×10^3 total luminescence counts per hour. The enzymatic rate in data set [3] is 31.0±6.8×10^2 total luminescence counts per minute.
Turning to `CCN(CC)c1ccc(C=CC=CC2=NC(C(=O)OC(C)c3ccccc3)CS2)cc1` (stereo not drawn) [Compound (3)], the rate of hydrolysis in data set [2] is recorded as 1.0±0.1×10^3 total luminescence counts per hour. In data set [2] (PBS pH 7.4, 37° C.), the “effectiveness at blocking hydrolysis, methyl substituent of (3) versus phenyl group of (2)” value is listed as “over three-fold more effective at blocking hydrolysis”. Besides, in data set [3], the enzymatic rate is listed as 9.5±1.2×10^2 total luminescence counts per minute.
`CCN(CC)c1ccc(C=CC=CC2=NC(C(=O)OC)CS2)cc1` (stereo not drawn) [BL660-Me]: in data set [4] (30 mins), the “luminescence relative to Compound (4)” value worked out at 31 fold and the “luminescence relative to the vehicle” value came to 55 fold. Also, the total luminescence count in data set [4] (30 mins at 37° C.) is given as 94.1±5.9×10^3 total luminescence count.
As to `CCN(CC)c1ccc(C=CC=CC2=NC(C(=O)OC(c3ccccc3)c3ccccc3)CS2)cc1` (stereo not drawn) [Compound (2)], the rate of hydrolysis in data set [2] was 3.3±0.6×10^3 total luminescence counts per hour. Moreover, the enzymatic rate in data set [3] is 0.6±0.1×10^2 total luminescence counts per minute.
`CC(C)C(OC(=O)CCC(NC(=O)c1ccc(N(C)Cc2cnc3nc(N)nc(N)c3n2)cc1)C(=O)OC(c1ccccc1)C(C)C)c1ccccc1` (mixture of isomers) [MTX-(Ph^iPr)2]: the viability in data set [1] is reported as 100%.
